Four compounds from PMC5054527, “Mechanism of high affinity inhibition of the human urate transporter URAT1” (Scientific Reports, 2016) can be followed below.

What all share (assay): URAT1 uric acid transport activity assay
Common to all, as to assay type: cell-based

Experiment [1] addresses T1, r-T32C rURAT1 point mutant (Rattus norvegicus, UniProt Q3ZAV1, T32C).
T1 sequence (Q3ZAV1 1-553 T32C): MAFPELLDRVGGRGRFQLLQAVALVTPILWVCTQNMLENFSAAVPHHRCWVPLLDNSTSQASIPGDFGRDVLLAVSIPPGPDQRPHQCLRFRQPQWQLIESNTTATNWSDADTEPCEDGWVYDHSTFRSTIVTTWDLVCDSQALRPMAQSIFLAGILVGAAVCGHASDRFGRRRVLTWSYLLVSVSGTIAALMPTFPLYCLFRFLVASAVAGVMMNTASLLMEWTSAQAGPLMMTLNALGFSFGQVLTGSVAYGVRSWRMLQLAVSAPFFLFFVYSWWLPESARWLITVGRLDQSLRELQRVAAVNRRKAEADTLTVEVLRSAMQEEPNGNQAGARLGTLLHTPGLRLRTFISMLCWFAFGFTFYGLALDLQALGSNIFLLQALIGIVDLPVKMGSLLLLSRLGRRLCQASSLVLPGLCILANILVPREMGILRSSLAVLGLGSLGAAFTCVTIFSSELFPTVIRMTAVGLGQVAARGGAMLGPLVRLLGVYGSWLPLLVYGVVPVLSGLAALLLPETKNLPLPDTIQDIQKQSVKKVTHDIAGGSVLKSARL
The source says:
(§1) hURAT1 (GenBank BC053348.1) and rURAT1 (NCBI NM_001034943.1) genes were purchased from Origene Technologies, Inc. and subcloned into pCMV6/neo using NotI, creating pCMV6/neo-hURAT1 and pCMV6/neo-rURAT1. Mutants were produced by polymerase chain reaction (PCR) or site-directed mutagenesis using the QuikChange Lightning Multi Site-Directed Mutagenesis Kit (Agilent Technologies). […] Detailed methods are provided in Supplementary Methods, and primers are listed in Supplementary Table 1. […] Residues in rURAT1 and hOAT1 that correspond to the residues in hURAT1 were identified from aligned protein sequences (Supplementary Fig. 1)[50].
(§2) DNA (10 μg) was mixed with 30 μl of DreamFect Gold (Boca Scientific) in 2 ml OptiMem (Life Technologies). After 20 minutes, 18 ml of media containing 2 × 10^7 cells in suspension was added and mixed, and 200 μl per well were plated onto white clear-bottomed poly-D-lysine coated 96-well plates (BD Biosciences). The cells were assayed the following day.
(§3) Compounds were serially diluted into assay buffer and added to the cells for 5 minutes prior to addition of radiolabelled uric acid substrate. URAT1-expressing cells were incubated with 100 μM ^14C-uric acid for 10 minutes. […] Each treatment was measured in triplicate.
(§4) Unlabelled uric acid was prepared at a 20 mM stock just prior to use in a solution containing 20 mM dibasic potassium phosphate and 20 mM potassium hydroxide.
(§5) Nonlinear regression analyses using GraphPad Prism software were used to calculate the potency of URAT1 inhibitors (IC50 values) from log (inhibitor) versus response - variable slope (four parameters) equations. Statistical significance was assessed using Student’s unpaired t-tests.

In experiment [2] the target is T2, r-V25M rURAT1 point mutant (Rattus norvegicus, UniProt Q3ZAV1, V25M).
T2 construct: expressed in transfected cells; host or cells: HEK-293T
T2 sequence (Q3ZAV1 1-553 V25M): T1 sequence (Q3ZAV1 1-553 T32C) with V25M, C32T
Text: as §1, §2, §3, §4, §5

In experiment [3] the target is T3, r-Y365F rURAT1 point mutant (Rattus norvegicus, UniProt Q3ZAV1, Y365F).
T3 sequence (Q3ZAV1 1-553 Y365F): T1 sequence (Q3ZAV1 1-553 T32C) with C32T, Y365F
The note with it: for fold increased affinity of r-Y365F compared to rURAT1: from IC50 values.
Text: as §1, §2, §3, §4, §5

Where [4] appears, read: r-Y365F, MES pH 5.5, 100 μM 14C-uric acid, read-out: IC50 (uric acid transport).

Where a chain is given by its changes, count along the chain named. Like-named read-outs stand apart in the source and are kept apart here.

With `CCc1oc2ccccc2c1C(=O)c1cc(Br)c(O)c(Br)c1` [benzbromarone], the IC50 in experiment [1] came to 24 ± 4 µM; in experiment [2], 11 ± 2.7 µM; in experiment [3], 9.4 ± 1.6 µM.

In the case of `O=C(O)CSc1nnc(Br)n1-c1ccc(C2CC2)c2ccccc12` [lesinurad, 2-((5-bromo-4-(4-cyclopropylnaphthalen-1-yl)-4H-1,2,4-triazol-3-yl)thio)acetic acid], the 50% inhibitory concentration (IC50) worked out at 73 ± 5.9 µM in experiment [1] (r-T32C, MES pH 5.5, 100 μM 14C-uric acid, read-out: IC50 (uric acid transport)); 59 ± 17 µM in experiment [2] (r-V25M, MES pH 5.5, 100 μM 14C-uric acid, read-out: IC50 (uric acid transport)); 15 ± 3 µM in experiment [3] (setting [4]).

On to `O=C1C(CC[S+]([O-])c2ccccc2)C(=O)N(c2ccccc2)N1c1ccccc1` (stereo not shown) [sulfinpyrazone], for which the IC50 was found to be 691 ± 98 µM in experiment [1] (r-T32C, HEPES pH 7.3, 100 μM 14C-uric acid, read-out: IC50 (uric acid transport)); 14 ± 2.3 µM in experiment [2] (r-V25M, HEPES pH 7.3, 100 μM 14C-uric acid, read-out: IC50 (uric acid transport)); 255 ± 27 µM in experiment [3] (r-Y365F, HEPES pH 7.3, 100 μM 14C-uric acid, read-out: IC50 (uric acid transport)). The “fold increased affinity of r-V25M compared to rURAT1” value in experiment [2] (from IC50 values) worked out at 49 fold. Moreover, in experiment [3], the “fold increased affinity of r-Y365F compared to rURAT1” value is 2.7 fold.

Take `O=c1[nH]c(=O)c2[nH]c(=O)[nH]c2[nH]1` [uric acid]: the “fold increased affinity of r-Y365F compared to rURAT1” value in experiment [3] was 1.6 fold. Also, the IC50 in experiment [3] (setting [4]) stood at 1640 µM.

Usually IC50 stands for the concentration that inhibits the measured activity by half.
